Measured values taken from PubChem BioAssay AID1963450 (Molecular Pharmacology Branch, DTP, NCI, 2024).
Where “and” joins values, the source holds several entries; their conditions need not be identical. Identical values can stand only once. Values belong to the compound of their own block, whether it stands above or below them.

Tested on: 556581-035-R-J1-PDC complex spheroid growth
Experiment: Anticancer human tumor 556581-035-R-J1-PDC patient-derived ovarian carcinoma cell line growth inhibition [Asc]
Conditions: for viability, T/C: stronger effect = lower value
Procedure, shortened: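 Complex solid-tumor spheroids incorporating human endothelial and mesenchymal stem cells received single agents or combinations over half-log dilution ranges anchored to clinical Cmax.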

[1] = curve of first compound, second compound 0.1 µM
[2] = curve of first compound, second compound 0.316 µM
[3] = curve of first compound, second compound 1 µM
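Note: spheroids exposed to agents for 7 days before viability read.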

SMILES: CCN1C(C(=O)NC23CCC(C(=O)O)(CC2)CC3)C(c2cccc(Cl)c2F)C2(C(=O)Nc3cc(Cl)ccc32)C12CCCCC2 (centres undefined) + CNC(C)C(=O)NC1CN(S(=O)(=O)c2cccc(S(=O)(=O)N3CCC4CCC(C(=O)NC(c5ccccc5)c5ccccc5)N4C(=O)C(NC(=O)C(C)NC)C3)c2)CCC2CCC(C(=O)NC(c3ccccc3)c3ccccc3)N2C1=O
IC50 (curve of first compound, second compound 0.01 µM): > 3000 nM | IC50 (curve of first compound, second compound 0.0316 µM): > 3000 nM | IC50 [1]: > 3000 nM | IC50 [2]: > 3000 nM | IC50 [3]: > 3000 nM | viability, T/C (second compound 0.01 µM, first compound 0.00949 µM): 82.8% | viability, T/C (second compound 0.01 µM, first compound 0.03 µM): 98.8% | viability, T/C (second compound 0.01 µM, first compound 0.0949 µM): 97.1% | viability, T/C (second compound 0.01 µM, first compound 0.3 µM): 86.2% | viability, T/C (second compound 0.01 µM, first compound 0.949 µM): 92.2% | viability, T/C (second compound 0.01 µM, first compound 3 µM): 86.9% | viability, T/C (second compound 0.0316 µM, first compound 0.00949 µM): 83.2% | viability, T/C (second compound 0.0316 µM, first compound 0.03 µM): 85.7% | viability, T/C (second compound 0.0316 µM, first compound 0.0949 µM): 82.3% | viability, T/C (second compound 0.0316 µM, first compound 0.3 µM): 87.8% | viability, T/C (second compound 0.0316 µM, first compound 0.949 µM): 91.2% | viability, T/C (second compound 0.0316 µM, first compound 3 µM): 102% | viability, T/C (second compound 0.1 µM, first compound 0.00949 µM): 79% | viability, T/C (second compound 0.1 µM, first compound 0.03 µM): 88.9% | viability, T/C (second compound 0.1 µM, first compound 0.0949 µM): 84.3% | viability, T/C (second compound 0.1 µM, first compound 0.3 µM): 67.7% | viability, T/C (second compound 0.1 µM, first compound 0.949 µM): 90% | viability, T/C (second compound 0.1 µM, first compound 3 µM): 90.3% | viability, T/C (second compound 0.316 µM, first compound 0.00949 µM): 77.1% | viability, T/C (second compound 0.316 µM, first compound 0.03 µM): 78.9% | viability, T/C (second compound 0.316 µM, first compound 0.0949 µM): 77.6% | viability, T/C (second compound 0.316 µM, first compound 0.3 µM): 84.9% | viability, T/C (second compound 0.316 µM, first compound 0.949 µM): 73.4% | viability, T/C (second compound 0.316 µM, first compound 3 µM): 69.7% | viability, T/C (second compound 1 µM, first compound 0.00949 µM): 71.5% | viability, T/C (second compound 1 µM, first compound 0.03 µM): 72.5% | viability, T/C (second compound 1 µM, first compound 0.0949 µM): 65.9% | viability, T/C (second compound 1 µM, first compound 0.3 µM): 68.4% | viability, T/C (second compound 1 µM, first compound 0.949 µM): 68% | viability, T/C (second compound 1 µM, first compound 3 µM): 72.4%

SMILES: C=C(F)C(=O)N1CCN(c2nc(OCC3CCCN3C)nc3c2CCN(c2cccc4cccc(Cl)c24)C3)CC1CC#N (centres undefined) + Cc1c(S(C)(=O)=O)c(-c2cc(F)cc(N3CCN(c4ccc(NS(=O)(=O)c5ccc(NC(CCN6CCC(C(=O)OCCCP(=O)(O)O)CC6)CSc6ccccc6)c(S(=O)(=O)C(F)(F)F)c5)cc4)CC3)c2)c(-c2ccc(Cl)cc2)n1C(C)C
IC50 [1]: 2110 nM | IC50 [2]: 1550 nM | IC50 [3]: 1270 nM | IC50 (curve of first compound, second compound 3.16 µM): 1010 nM | IC50 (curve of first compound, second compound 10 µM): 1010 nM | viability, T/C (second compound 0.1 µM, first compound 0.0316 µM): 80.6% | viability, T/C (second compound 0.1 µM, first compound 0.1 µM): 87.7% | viability, T/C (second compound 0.1 µM, first compound 0.316 µM): 79.1% | viability, T/C (second compound 0.1 µM, first compound 1 µM): 76.9% | viability, T/C (second compound 0.1 µM, first compound 3.16 µM): 35.4% | viability, T/C (second compound 0.1 µM, first compound 10 µM): 30.3% | viability, T/C (second compound 0.316 µM, first compound 0.0316 µM): 69.3% | viability, T/C (second compound 0.316 µM, first compound 0.1 µM): 86.7% | viability, T/C (second compound 0.316 µM, first compound 0.316 µM): 87.8% | viability, T/C (second compound 0.316 µM, first compound 1 µM): 68.6% | viability, T/C (second compound 0.316 µM, first compound 3.16 µM): 18.2% | viability, T/C (second compound 0.316 µM, first compound 10 µM): 0.26% | viability, T/C (second compound 1 µM, first compound 0.0316 µM): 73.7% | viability, T/C (second compound 1 µM, first compound 0.1 µM): 71.8% | viability, T/C (second compound 1 µM, first compound 0.316 µM): 64.9% | viability, T/C (second compound 1 µM, first compound 1 µM): 56.8% | viability, T/C (second compound 1 µM, first compound 3.16 µM): 23.5% | viability, T/C (second compound 1 µM, first compound 10 µM): 25.7% | viability, T/C (second compound 3.16 µM, first compound 0.0316 µM): 63.1% | viability, T/C (second compound 3.16 µM, first compound 0.1 µM): 61.5% | viability, T/C (second compound 3.16 µM, first compound 0.316 µM): 67.7% | viability, T/C (second compound 3.16 µM, first compound 1 µM): 50.3% | viability, T/C (second compound 3.16 µM, first compound 3.16 µM): 22.1% | viability, T/C (second compound 3.16 µM, first compound 10 µM): 27% | viability, T/C (second compound 10 µM, first compound 0.0316 µM): 59.6% | viability, T/C (second compound 10 µM, first compound 0.1 µM): 54.5% | viability, T/C (second compound 10 µM, first compound 0.316 µM): 57.8% | viability, T/C (second compound 10 µM, first compound 1 µM): 50.4% | viability, T/C (second compound 10 µM, first compound 3.16 µM): 8.45% | viability, T/C (second compound 10 µM, first compound 10 µM): 0.49%

SMILES: O=C(c1ccc(F)c(F)c1Nc1ccc(I)cc1F)N1CC(O)([C@@H]2CCCCN2)C1
viability, T/C (compound 0.00316 µM): 108% and 79.6% and 89.6% | viability, T/C (compound 0.01 µM): 109% and 97.5% and 101% | viability, T/C (compound 0.0316 µM): 59.3% and 70.2% and 121% | viability, T/C (compound 0.1 µM): 63.9% and 59.8% and 92% | viability, T/C (compound 0.316 µM): 50.6% and 37.8% and 42% | viability, T/C (compound 1 µM): 7.45% and 10.7% and 14% | IC50 (curve of compound): 171 nM and 164 nM and 263 nM

Further lines, with some results ahead:

IC50 (curve of compound): > 10000 nM
SMILES: O=C(c1cc(Cc2n[nH]c(=O)c3ccccc23)ccc1F)N1CCN(C(=O)C2CC2)CC1
viability, T/C (compound 0.0316 µM): 102% and 112% and 91.3% | viability, T/C (compound 0.1 µM): 107% and 101% and 99.2% | viability, T/C (compound 0.316 µM): 106% (2×) and 60% | viability, T/C (compound 1 µM): 95.7% and 85.4% and 88.8% | viability, T/C (compound 3.16 µM): 106% and 98.3% and 72.7% | viability, T/C (compound 10 µM): 81.1% and 83.3% and 78.6%

IC50 (curve of first compound, second compound 0.03 µM): > 1000 nM | IC50 (curve of first compound, second compound 0.0949 µM): > 1000 nM | IC50 (curve of first compound, second compound 0.3 µM): > 1000 nM | IC50 (curve of first compound, second compound 0.949 µM): > 1000 nM | IC50 (curve of first compound, second compound 3 µM): > 1000 nM
SMILES: CCN1CCN(Cc2ccc(Nc3ncc(F)c(-c4cc(F)c5nc(C)n(C(C)C)c5c4)n3)nc2)CC1 + CCN1C(C(=O)NC23CCC(C(=O)O)(CC2)CC3)C(c2cccc(Cl)c2F)C2(C(=O)Nc3cc(Cl)ccc32)C12CCCCC2
viability, T/C (second compound 0.03 µM, first compound 0.00316 µM): 91.6% | viability, T/C (second compound 0.03 µM, first compound 0.01 µM): 84.4% | viability, T/C (second compound 0.03 µM, first compound 0.0316 µM): 94% | viability, T/C (second compound 0.03 µM, first compound 0.1 µM): 81.8% | viability, T/C (second compound 0.03 µM, first compound 0.316 µM): 102% | viability, T/C (second compound 0.03 µM, first compound 1 µM): 88% | viability, T/C (second compound 0.0949 µM, first compound 0.00316 µM): 107% | viability, T/C (second compound 0.0949 µM, first compound 0.01 µM): 98% | viability, T/C (second compound 0.0949 µM, first compound 0.0316 µM): 95.2% | viability, T/C (second compound 0.0949 µM, first compound 0.1 µM): 106% | viability, T/C (second compound 0.0949 µM, first compound 0.316 µM): 98.2% | viability, T/C (second compound 0.0949 µM, first compound 1 µM): 87.2% | viability, T/C (second compound 0.3 µM, first compound 0.00316 µM): 102% | viability, T/C (second compound 0.3 µM, first compound 0.01 µM): 82.5% | viability, T/C (second compound 0.3 µM, first compound 0.0316 µM): 96.8% | viability, T/C (second compound 0.3 µM, first compound 0.1 µM): 99.7% | viability, T/C (second compound 0.3 µM, first compound 0.316 µM): 92.3% | viability, T/C (second compound 0.3 µM, first compound 1 µM): 88.4% | viability, T/C (second compound 0.949 µM, first compound 0.00316 µM): 84.9% | viability, T/C (second compound 0.949 µM, first compound 0.01 µM): 88.5% | viability, T/C (second compound 0.949 µM, first compound 0.0316 µM): 92.9% | viability, T/C (second compound 0.949 µM, first compound 0.1 µM): 92.9% | viability, T/C (second compound 0.949 µM, first compound 0.316 µM): 81.1% | viability, T/C (second compound 0.949 µM, first compound 1 µM): 91.6% | viability, T/C (second compound 3 µM, first compound 0.00316 µM): 81.7% | viability, T/C (second compound 3 µM, first compound 0.01 µM): 83.3% | viability, T/C (second compound 3 µM, first compound 0.0316 µM): 82.6% | viability, T/C (second compound 3 µM, first compound 0.1 µM): 83.5% | viability, T/C (second compound 3 µM, first compound 0.316 µM): 87.2% | viability, T/C (second compound 3 µM, first compound 1 µM): 86.2%
